Reference: publication doi:10.1101/2025.11.13.687868v1 (biorxiv, 2025)

Assays:
[1] = biological target: T1, GPX4 (purified recombinant Sec-containing human GPX4) (Homo sapiens, UniProt P36969); experiment: GR-coupled NADPH fluorescence assay; format: biochemical
T1 sequence (P36969 28-197): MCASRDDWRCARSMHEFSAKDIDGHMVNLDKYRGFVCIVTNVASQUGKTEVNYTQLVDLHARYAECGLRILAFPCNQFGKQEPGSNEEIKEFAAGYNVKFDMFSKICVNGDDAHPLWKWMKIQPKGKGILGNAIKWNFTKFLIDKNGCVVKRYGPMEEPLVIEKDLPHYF

GPX1 = biological target: T2, GPX1 (Homo sapiens, UniProt P07203); experiment: GR-coupled NADPH fluorescence assay; format: biochemical
T2 sequence (P07203 1-203): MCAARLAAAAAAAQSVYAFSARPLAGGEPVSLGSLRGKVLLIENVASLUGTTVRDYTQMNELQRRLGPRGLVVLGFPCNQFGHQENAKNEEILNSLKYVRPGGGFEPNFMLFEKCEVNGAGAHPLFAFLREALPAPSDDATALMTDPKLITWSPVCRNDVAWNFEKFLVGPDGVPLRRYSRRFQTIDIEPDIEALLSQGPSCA

IC50 [1]: 54.8 µM
IC50 (GPX1): 6.7 µM
SMILES: O=C(O)CC(S)C(=O)O (centres unmarked) [thiomalic acid]
